Measured values taken from patent US20220125784A1, “METHODS AND COMPOUNDS FOR INHIBITION OF INACTIVATION OF VOLTAGE-GATED SODIUM CHANNELS” (SIMON FRASER UNIVERSITY, priority 2019, published 2022).
Where two headings read alike, the source gives them in different places.

How the values were obtained:
Assay type in all cases: cell-based
WT Nav1.5-α subunits [1] = target: T1, WT Nav1.5-α subunits (Homo sapiens, UniProt Q14524); test: Whole-cell patch clamp, use-dependence (slow inactivation) protocol at 6 Hz in transiently transfected HEK293 cells
T1 construct: expressed in transfected cells; host or cells: HEK293 (transient transfection)
Description: (§1) In one set of studies, we used a whole-cell patch clamp technique with single voltage-pulse protocols (FIGS. 3A-B) to characterize compounds ZINC38767171, ZINC39699427, ZINC40014265, ZINC64470729, ZINC64470737 and ZINC64470745. Whole-cell patch clamp was performed in extracellular solution containing (in mM): 140 NaCl, 4 KCl, 2 CaCl2, 1 MgCl2, and 10 HEPES (pH 7.4 adjusted with CsOH). The intracellular pipettes were dipped in dental wax and thermally polished to attain a resistance of 1.0-1.5 MΩ. The intracellular solutions contained (in mM): 130 CsF, 10 NaCl, 10 HEPES, and 10 EGTA titrated to pH 7.4. The six compounds, ZINC38767171, ZINC39699427, ZINC40014265, ZINC64470729, ZINC64470737 and ZINC64470745, chosen for electrophysiology characterization, ordered from MolPort (Easy compound ordering services), were diluted to 10 μM, 50 μM, and 100 μM in extracellular solution for biophysical assessment of channel gating.
(§2) The six compounds were screened against wild type (WT) Nav1.5-α subunits at the optimal physiological temperature of 37° C. Human Embryonic Kidney (HEK293) cells were transfected with WT Nav1.5-α subunits (transient transfections). The α subunits were co-expressed with the β1 subunit and eGFP (enhanced green fluorescence protein) in a 2:1:2 ratio, respectively.
Slow inactivation (SI) was indirectly determined by measuring use-dependence, which is a physiologically-relevant protocol. The protocol includes a series of 500 110 ms depolarizing pulses to 0 mV followed by a 55 ms-90 mV recovery pulse at a frequency 6 Hz. With repetitive depolarizations, Nav1.5 channels accumulate into slow inactivation.

[2] = target: T2, cardiac (Nav1.5) sodium channel (Homo sapiens, UniProt Q14524); test: High-throughput patch clamp (QPatch/Qube 384), double voltage-pulse protocol, stable HEK293 Nav1.5; details: for deceleration of fast inactivation onset kinetics compared to control: preconditioning −120 mV
T2 construct: expressed in transfected cells
Description: (§3) In another set of studies, we used high-throughput patch clamp techniques using the QPatch (Qube) 384 to screen compounds against both neuronal and cardiac sodium channels. We used a different electrophysiology assay (double voltage-pulse protocol; FIG. 3C) to detect potentiators, inhibitors, and compounds that do both. The protocol assesses these parameters at both rest and partially inactivated holding potentials. For this assay, we used nine compounds from Table 2 that were diluted to 50 μM in DMSO for biophysical assessment of channel gating. The extracellular solution used in these experiments was Ringer solution.
(§4) The nine compounds were screened against the wild type (WT) cardiac (Nav1.5) and neuronal (Nav1.1) sodium channel α-subunits stably expressed in Human Embryonic Kidney (HEK293) along with the β1-subunit.
(§5) Currents were assessed by a test pulse of 0 mV from a holding potential at rest (−120 mV) before preconditioning at the appropriate V1/2 for the sodium channel subtype (V1/2=−90 mV and V1/2=−65 mV for Nav1.5 and Nav1.1, respectively) for 10 s. Parameters were tested following 5 min of incubation with the compounds and normalized to control (vehicle). Peak current, the time constant of inactivation, and the area under the curve (AUC) were measured.

WT Nav1.5-α subunits [3] = target: T1, WT Nav1.5-α subunits; test: Whole-cell patch clamp, single voltage-pulse protocol (peak INa, conductance, fast inactivation) in transiently transfected HEK293 cells; details: for Peak INa −20 mV: normalized peak INa, 37° C.
Description: as §1, §2
Conductance was measured by a protocol that depolarized the membrane from −100 mV to +80 mV in increments of +5 mV for 19 ms. Prior to the test pulse, channels were allowed to recover from fast inactivation at −130 mV for 197 ms. The tested compounds had no effect on the conductance midpoint (FIGS. 6A-F).
At voltages greater than −50 mV, the fast inactivation T values were calculated from the mono-exponential fit to the decay of sodium current.

[4] = target: T3, neuronal (Nav1.1) sodium channel (Homo sapiens, UniProt P35498); test: High-throughput patch clamp (QPatch/Qube 384), double voltage-pulse protocol, stable HEK293 Nav1.1
T3 construct: expressed in transfected cells
Description: as §3, §4, §5

[5] = 50 μM, holding potential −120 mV
[6] = HEK293, holding potential −120 mV, read-out: Normalized inhibition of peak sodium current

T2 sequence (Q14524 whole entry): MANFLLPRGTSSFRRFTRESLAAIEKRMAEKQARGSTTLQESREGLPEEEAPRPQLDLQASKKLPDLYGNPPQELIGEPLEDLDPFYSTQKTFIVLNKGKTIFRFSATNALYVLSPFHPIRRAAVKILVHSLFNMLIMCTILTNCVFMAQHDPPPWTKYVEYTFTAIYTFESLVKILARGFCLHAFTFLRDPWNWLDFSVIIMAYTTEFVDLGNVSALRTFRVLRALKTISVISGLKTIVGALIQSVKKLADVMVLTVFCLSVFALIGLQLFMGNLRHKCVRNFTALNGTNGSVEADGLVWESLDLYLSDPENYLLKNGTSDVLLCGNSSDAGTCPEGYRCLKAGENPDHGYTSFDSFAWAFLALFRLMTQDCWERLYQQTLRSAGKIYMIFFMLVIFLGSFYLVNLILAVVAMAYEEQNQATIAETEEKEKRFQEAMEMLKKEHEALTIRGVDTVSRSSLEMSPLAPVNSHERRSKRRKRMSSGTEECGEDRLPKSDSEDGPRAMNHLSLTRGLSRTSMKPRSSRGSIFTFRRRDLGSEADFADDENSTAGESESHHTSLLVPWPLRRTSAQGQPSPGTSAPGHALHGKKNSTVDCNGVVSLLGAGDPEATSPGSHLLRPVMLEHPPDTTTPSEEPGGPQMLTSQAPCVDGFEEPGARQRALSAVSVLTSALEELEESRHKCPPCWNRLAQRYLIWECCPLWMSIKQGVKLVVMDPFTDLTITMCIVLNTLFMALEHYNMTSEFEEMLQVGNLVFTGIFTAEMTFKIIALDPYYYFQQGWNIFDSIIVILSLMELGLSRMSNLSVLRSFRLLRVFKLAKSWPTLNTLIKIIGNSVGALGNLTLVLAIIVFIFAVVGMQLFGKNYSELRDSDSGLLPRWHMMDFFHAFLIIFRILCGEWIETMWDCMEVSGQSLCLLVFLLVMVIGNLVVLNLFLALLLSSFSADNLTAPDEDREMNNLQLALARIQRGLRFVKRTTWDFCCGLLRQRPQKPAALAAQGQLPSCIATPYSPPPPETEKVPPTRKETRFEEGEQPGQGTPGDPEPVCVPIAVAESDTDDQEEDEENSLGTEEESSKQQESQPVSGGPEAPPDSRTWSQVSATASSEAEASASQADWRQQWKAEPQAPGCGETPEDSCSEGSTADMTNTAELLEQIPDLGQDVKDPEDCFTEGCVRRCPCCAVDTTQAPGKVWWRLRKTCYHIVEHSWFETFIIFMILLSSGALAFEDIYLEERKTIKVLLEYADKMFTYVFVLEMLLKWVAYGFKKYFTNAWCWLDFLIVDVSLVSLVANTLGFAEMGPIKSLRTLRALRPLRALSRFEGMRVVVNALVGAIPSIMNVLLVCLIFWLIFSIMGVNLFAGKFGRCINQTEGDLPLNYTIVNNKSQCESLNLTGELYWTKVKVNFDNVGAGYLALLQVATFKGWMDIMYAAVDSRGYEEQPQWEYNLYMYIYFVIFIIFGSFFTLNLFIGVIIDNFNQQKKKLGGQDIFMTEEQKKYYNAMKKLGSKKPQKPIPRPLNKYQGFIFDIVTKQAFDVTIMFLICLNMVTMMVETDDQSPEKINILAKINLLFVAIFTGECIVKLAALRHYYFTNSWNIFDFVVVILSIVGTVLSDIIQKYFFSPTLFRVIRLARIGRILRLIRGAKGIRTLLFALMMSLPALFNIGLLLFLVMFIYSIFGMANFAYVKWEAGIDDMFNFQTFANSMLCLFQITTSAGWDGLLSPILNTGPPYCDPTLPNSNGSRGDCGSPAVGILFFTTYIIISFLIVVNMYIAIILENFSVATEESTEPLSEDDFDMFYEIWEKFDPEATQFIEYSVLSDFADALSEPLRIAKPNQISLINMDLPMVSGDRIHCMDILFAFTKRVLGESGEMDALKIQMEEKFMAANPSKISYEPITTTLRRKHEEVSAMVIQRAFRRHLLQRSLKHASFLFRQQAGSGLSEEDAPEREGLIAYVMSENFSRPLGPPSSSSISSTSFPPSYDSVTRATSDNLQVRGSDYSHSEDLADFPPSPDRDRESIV
T1 sequence (Q14524 whole entry): as above

SMILES: CN(C)[C@@H](CNC(=O)c1ccc2c(c1)=NC(=O)C(=O)N=2)c1ccco1 [ZINC40014265, N-[(2S)-2-(dimethylamino)-2-(2-furyl)ethyl]-2,3-dioxo-quinoxaline-6-carboxamide]
- UDI Block Slope (WT Nav1.5-α subunits [1]; Hill curve slope): 0.511
- IC50 (WT Nav1.5-α subunits [1]; Hill curve, use-dependence at 6 Hz, read-out: UDI Block IC50): 269 µM
- effect on peak INa [2, 5]: did not inhibit peak sodium current
- normalized area under curve (AUC) ratio of activated sodium current [2, 5]: slightly increased
- deceleration of fast inactivation onset kinetics compared to control ([2]; 50 μM): 1.5 fold
- % Block −20 mV (WT Nav1.5-α subunits [3]; 10 μM): −20.00%
- fast inactivation onset time constant FI +10 mV (WT Nav1.5-α subunits [3]; 10 μM): 0.23 ± 0.02 ms
- fast inactivation onset time constant FI −10 mV (WT Nav1.5-α subunits [3]; 10 μM): 0.33 ± 0.03 ms
- fast inactivation onset time constant FI −30 mV (WT Nav1.5-α subunits [3]; 10 μM): 0.63 ± 0.07 ms
- fast inactivation onset time constant FI −50 mV (WT Nav1.5-α subunits [3]; 10 μM): 2.98 ± 0.84 ms
- Peak INa −20 mV (WT Nav1.5-α subunits [3]; 10 μM): −0.80 ± 0.06
- % Block −20 mV (WT Nav1.5-α subunits [3]; 50 μM): −37.00%
- fast inactivation onset time constant FI +10 mV (WT Nav1.5-α subunits [3]; 50 μM): 0.25 ± 0.03 ms
- fast inactivation onset time constant FI −10 mV (WT Nav1.5-α subunits [3]; 50 μM): 0.37 ± 0.05 ms
- fast inactivation onset time constant FI −30 mV (WT Nav1.5-α subunits [3]; 50 μM): 0.69 ± 0.11 ms
- fast inactivation onset time constant FI −50 mV (WT Nav1.5-α subunits [3]; 50 μM): 2.18 ± 0.70 ms
- Peak INa −20 mV (WT Nav1.5-α subunits [3]; 50 μM): −0.63 ± 0.06
- % Block −20 mV (WT Nav1.5-α subunits [3]; 100 μM): −41.00%
- fast inactivation onset time constant FI +10 mV (WT Nav1.5-α subunits [3]; 100 μM): 0.26 ± 0.07 ms
- fast inactivation onset time constant FI −10 mV (WT Nav1.5-α subunits [3]; 100 μM): 0.37 ± 0.09 ms
- fast inactivation onset time constant FI −30 mV (WT Nav1.5-α subunits [3]; 100 μM): 0.69 ± 0.17 ms
- fast inactivation onset time constant FI −50 mV (WT Nav1.5-α subunits [3]; 100 μM): 2.17 ± 0.73 ms
- Peak INa −20 mV (WT Nav1.5-α subunits [3]; 100 μM): −0.59 ± 0.06
- Peak INa Slope (WT Nav1.5-α subunits [3]; Hill curve slope): 1.064
- IC50 (WT Nav1.5-α subunits [3]; Hill curve, single voltage-pulse protocol): 12.6 µM

SMILES: Cc1nc(-n2cccc2)sc1C(=O)N=c1[nH]c2ccccc2[nH]1 [ZINC12323863, N-(1H-benzimidazol-2-yl)-4-methyl-2-pyrrol-1-yl-thiazole-5-carboxamide]
- effect on tau of inactivation from holding potential −120 mV ([4]; 50 μM): accelerates inactivation
- normalized area under curve (AUC) ratio of activated sodium current [4, 5]: substantially reduces
- inhibition at 50 µM [4, 6]: ~32%
- inhibition at 50 µM ([4]; HEK293, −65 mV for 10 s, read-out: Normalized inhibition of peak sodium current after 10 s pulse to mid-voltage potential): ~80%
- deceleration of fast inactivation onset kinetics compared to control ([2]; 50 μM): 1.5 fold
- inhibition at 50 µM [2, 6]: ~32%
- inhibition at 50 µM ([2]; HEK293, −90 mV for 10 s, read-out: Normalized inhibition of peak sodium current after 10 s pulse to mid-voltage potential): ~80%
